{
  "source": "ChEMBL document CHEMBL2331348",
  "about": "“Positive allosteric modulators of nicotinic acetylcholine receptor” (ACS Med Chem Lett, 2013)",
  "target": "Neuronal acetylcholine receptor subunit alpha-7 (Homo sapiens, UniProt P36544)",
  "sequence (P36544 whole entry)": "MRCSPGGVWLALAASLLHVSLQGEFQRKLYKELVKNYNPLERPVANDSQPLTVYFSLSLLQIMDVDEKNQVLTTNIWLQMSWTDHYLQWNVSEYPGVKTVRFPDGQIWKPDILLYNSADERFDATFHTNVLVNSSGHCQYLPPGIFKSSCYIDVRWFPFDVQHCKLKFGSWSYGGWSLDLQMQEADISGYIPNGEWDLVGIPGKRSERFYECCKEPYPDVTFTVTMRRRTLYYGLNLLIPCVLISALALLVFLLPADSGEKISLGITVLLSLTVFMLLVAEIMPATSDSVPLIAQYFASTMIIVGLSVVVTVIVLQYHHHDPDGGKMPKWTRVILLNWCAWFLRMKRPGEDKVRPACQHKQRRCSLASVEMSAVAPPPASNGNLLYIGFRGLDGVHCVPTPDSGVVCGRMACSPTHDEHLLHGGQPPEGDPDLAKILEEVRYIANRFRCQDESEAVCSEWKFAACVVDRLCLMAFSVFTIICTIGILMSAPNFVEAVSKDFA",
  "assay": "Positive allosteric modulator activity at human alpha7 nAChR expressed in rat GH4C1 cells assessed as potentiation of acetylcholine-induced response by FDSS Ca2+ assay",
  "type": "cell-based, GH4-C1",
  "data": [
    {"compound": "C[C@H](NC(=O)[C@H]1C[C@@H]1c1ccccc1)c1ccc(S(C)(=O)=O)nc1", "values": [
      {"measurement": "EC50", "value": 2000, "unit": "nM"}
    ]}
  ]
}
